Measurements from PMC12371506 (ACS Bio & Med Chem Au, 2025).
Residues, ends and D or L forms follow the SMILES beside them. *: point of attachment. Cbz = O=C(OCc1ccccc1)*; CH2F = FC*

How the values were obtained:
caspase-9 = molecular target: T1, caspase-9 (Homo sapiens, UniProt P55211); test: In vitro inhibition assay, caspase-9; format: biochemical
T1 sequence (P55211 1-315 limits assumed): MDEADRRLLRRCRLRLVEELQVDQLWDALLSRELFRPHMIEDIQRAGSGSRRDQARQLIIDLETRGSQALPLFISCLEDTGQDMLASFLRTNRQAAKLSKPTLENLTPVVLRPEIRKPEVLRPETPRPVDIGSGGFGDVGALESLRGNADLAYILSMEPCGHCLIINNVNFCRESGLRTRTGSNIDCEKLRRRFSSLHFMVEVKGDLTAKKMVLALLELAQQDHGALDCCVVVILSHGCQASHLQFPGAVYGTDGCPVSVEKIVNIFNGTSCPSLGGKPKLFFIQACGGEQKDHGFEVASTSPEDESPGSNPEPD
T1 sequence (P55211 331-416 limits assumed): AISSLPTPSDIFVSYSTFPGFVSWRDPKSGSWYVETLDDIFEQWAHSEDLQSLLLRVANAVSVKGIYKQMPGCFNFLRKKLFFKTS

[1] = system: HCC1806 triple-negative breast cancer cells; test: TNF-α-induced extrinsic apoptosis in HCC1806 cells; settings: 10 μM inhibitor 30 min, then TNF-α; early time points (2–6 h)
THP1 monocytes = test: TRAIL-induced extrinsic apoptosis in THP1 monocytes; format: cell-based, human; settings: 25 μM inhibitor

| Structure (SMILES) | IC50 (caspase-9) | caspases-3/7 activation (caspase-3/7 dye) [1] | relative potency at inhibiting caspases-3/7 activity (caspases-3/7 dye) (THP1 monocytes) |
| --- | --- | --- | --- |
| CCO[C@@H]1OC(=O)C[C@@H]1NC(=O)[C@@H]1CCCN1C(=O)[C@@H](NC(=O)c1ccc(N)c(Cl)c1)C(C)(C)C [VX-765, (S)-1-((S)-2-{[1-(4-amino-3-chloro-phenyl)-methanoyl]-amino}-3,3-dimethyl-butanoyl)-pyrrolidine-2-carboxylic acid ((2R,3S)-2-ethoxy-5-oxo-tetrahydro-furan-3-yl)-amide] | 540 ± 260 nM |  |  |
| CC[C@H](C)[C@H](NC(=O)OCc1ccccc1)C(=O)N[C@@H](CCC(=O)OC)C(=O)N[C@H](C(=O)N[C@@H](CC(=O)OC)C(=O)CF)[C@@H](C)O [zIETD-FMK] (Cbz-IE(OMe)TD(OMe)-CH2F) | 1470 ± 620 nM | inhibition of caspases-3/7 activation |  |
| COC(=O)CC[C@H](NC(=O)[C@H](CC(C)C)NC(=O)OCc1ccccc1)C(=O)N[C@@H](Cc1c[nH]cn1)C(=O)N[C@@H](CC(=O)OC)C(=O)CF [zLEHD-FMK] (Cbz-LE(OMe)HD(OMe)-CH2F) | 800 ± 320 nM |  | more potent than zIETD-FMK |
